Reference: ChEMBL document CHEMBL6071140, “Ocotillol Derivatives Mitigate Retinal Ischemia-Reperfusion Injury by Regulating the Keap1/Nrf2/ARE Signaling Pathway” (J Med Chem, 2024)
Activity calls are given as the source filed them. No cut-off for these calls is given here.

Key:
[1] = system: BMDM; experiment: (§1) Antiinflammatory activity against LPS-stimulated mouse BMDM assessed as induction of polarization toward M2 phenotype at 1.25 uM preincubated for 2 hrs followed by LPS addition for 22 hrs by DAPI staining based confocal laser scanning microscopy; assay type: functional; conditions: time 24.0 hrs
[2] = system: BMDM; experiment: Antiinflammatory activity against LPS-stimulated mouse BMDM assessed as reduction in NO production at 1.25 uM preincubated for 2 hrs followed by LPS addition for 22 hrs by Griess reagent based assay; assay type: functional, cell-based; conditions: time 24.0 hrs
[3] = system: R28; experiment: Antioxidant activity in rat R28 cells assessed as protection against OGD induced cytotoxicity by measuring cellular ATP level preincubated under OGD condition for 8 hrs followed by reoxygenation for 4 hrs by CellTiter-Lumi Plus cell viability assay; assay type: functional, cell-based; conditions: dose 0.1-40 µM, time 12.0 hrs
[4] = system: BMDM; experiment: (§2) Antiinflammatory activity against LPS-stimulated mouse BMDM assessed as fold decrease in TNFalpha expression at 1.25 uM preincubated for 2 hrs followed by LPS addition for 22 hrs by ELISA; assay type: functional; conditions: time 24.0 hrs
[5] = system: BMDM; experiment: Antiinflammatory activity against LPS-stimulated mouse BMDM assessed as reduction in IL6 expression at 1.25 uM preincubated for 2 hrs followed by LPS addition for 22 hrs by ELISA; assay type: functional, cell-based; conditions: time 24.0 hrs
[6] = system: R28; experiment: Antioxidant activity in rat R28 cells assessed as protection against OGD induced cytotoxicity by measuring cellular ATP level at 0.1 to 40 uM preincubated under OGD condition for 8 hrs followed by reoxygenation for 4 hrs by CellTiter-Lumi Plus cell viability assay; assay type: functional, cell-based; conditions: dose 0.1-40 µM, time 12.0 hrs
[7] = Inhibition of OGD stimulated ROS accumulation in rat R28 cells assessed as fold decrease in ROS level at 1.25 uM preincubated for 24 hrs followed by OGD stimulation by DCFH-DA staining based confocal laser scanning microscopy; assay type: functional
[8] = system: R28; experiment: (§3) Upregulation of HO-1 protein expression in OGD stimulated rat R28 cells by Western blotting analysis; assay type: functional
[9] = system: R28; experiment: (§4) Upregulation of Nrf2 protein expression in OGD stimulated rat R28 cells by Western blotting analysis; assay type: functional
[10] = target: Kelch-like ECH-associated protein 1 (Homo sapiens) (UniProt Q14145); experiment: Binding affinity to Keap1 (unknown origin) incubated for 15 mins by MST assay; conditions: filed as activator
[11] = Cytotoxicity against rat R28 cells assessed as decrease in cellular ATP content incubated for 24 hrs by CellTiter-Lumi Plus cell viability assay; assay type: toxicity, cell-based; conditions: r28, 24 h
[12] = system: Macrophage; experiment: Antiinflammatory activity against LPS-stimulated mouse macrophages assessed as reduction in NO production at 0.1 to 40 uM preincubated for 2 hrs followed by LPS addition for 22 hrs by Griess reagent based assay; assay type: functional, cell-based; conditions: dose 0.1-40 µM, time 24.0 hrs
[13] = system: R28; experiment: (§5) Upregulation of NQO1 protein expression in OGD stimulated rat R28 cells by Western blotting analysis; assay type: functional
[14] = as §1; assay type: functional; conditions: time 24 hrs
[15] = as §2; assay type: functional; conditions: time 24 hrs
[16] = as §3; assay type: functional
[17] = as §4; assay type: functional
[18] = as §5; assay type: functional
[19] = system: R28; experiment: Induction of Nrf2 translocation from cytosol to nucleus in OGD stimulated rat R28 cells; assay type: functional, cell-based

Chain of Kelch-like ECH-associated protein 1 (Homo sapiens) (Q14145 whole entry): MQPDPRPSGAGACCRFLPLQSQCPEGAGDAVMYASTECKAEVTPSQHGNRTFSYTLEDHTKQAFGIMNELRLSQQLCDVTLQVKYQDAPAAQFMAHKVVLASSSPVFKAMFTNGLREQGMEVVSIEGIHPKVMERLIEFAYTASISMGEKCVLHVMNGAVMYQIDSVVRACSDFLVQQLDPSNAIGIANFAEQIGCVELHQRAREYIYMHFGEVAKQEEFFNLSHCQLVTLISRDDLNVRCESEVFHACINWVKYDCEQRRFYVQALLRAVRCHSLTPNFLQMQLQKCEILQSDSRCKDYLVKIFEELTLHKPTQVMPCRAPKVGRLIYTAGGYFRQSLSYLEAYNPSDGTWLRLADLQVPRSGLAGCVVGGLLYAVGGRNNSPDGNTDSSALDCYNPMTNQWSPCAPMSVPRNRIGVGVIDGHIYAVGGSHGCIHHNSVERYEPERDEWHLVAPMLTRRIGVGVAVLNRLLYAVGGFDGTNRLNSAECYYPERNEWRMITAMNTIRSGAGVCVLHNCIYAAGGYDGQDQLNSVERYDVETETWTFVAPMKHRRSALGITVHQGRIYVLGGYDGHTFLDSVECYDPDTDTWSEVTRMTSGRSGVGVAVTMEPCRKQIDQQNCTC

Activity [10]	SMILES	Activity [1]	Activity [2]	Activity [3]	Activity [4]	Activity [5]	Activity [6]	fold change (FC) [7]	Activity [8]	Activity [9]	Activity [11]	Activity [12]	Activity [13]	Activity [14] [%]	fold change (FC) [15]	Activity [16] [%]	Activity [17] [%]	Activity [18] [%]	Activity [19]
Dose-Dependent Effect	CN(CC(=O)O)CC(=O)Nc1nc2c(s1)C[C@]1(C)[C@H]3C[C@@H](O)[C@@H]4[C@@H]([C@]5(C)CC[C@H](C(C)(C)O)O5)CC[C@@]4(C)[C@]3(C)CC[C@H]1C2(C)C	Active	Active	Dose-Dependent Effect	inactive	Active	Active	1.31	inactive	inactive	Non-Toxic	Active	inactive	–	–	–	–	–	–
Dose-Dependent Effect	CN(CC(=O)O)CC(=O)Nc1nc2c(s1)C[C@]1(C)[C@H]3C[C@@H](O)[C@@H]4[C@@H]([C@]5(C)CC[C@@H](C(C)(C)O)O5)CC[C@@]4(C)[C@]3(C)CC[C@H]1C2(C)C	–	Active	Dose-Dependent Effect	–	Active	Active	1.16	–	–	Non-Toxic	Active	–	100	48.3	77.93	96.59	85.54	Active
